Residues, ends and D or L forms follow the SMILES beside them. *: point of attachment. NH(2-Me-nonan-4R-yl) = CCCCC[C@H](CC(C)C)N*; NHCH(iBu)2 = CC(C)CC(CC(C)C)N*; X1 = CCCCC[C@@H](CC(C)C)N*; X2 = CCCC=C[C@H](CC(C)C)N*; Boc = CC(C)(C)OC(=O)*; Piv = CC(C)(C)C(=O)*; Ms = CS(=O)(=O)*

The values below come from patent publication US4943561A, “Gastrin releasing peptide antagonist” (Merck & Co., Inc., priority 1988, dated 1990).

For the first assay, the target named is T1, GRP receptor (Mus musculus, UniProt P21729).
T1 construct: endogenous in cells; host or cells: Swiss 3T3 fibroblasts (intact monolayers)
T1 sequence (P21729 whole entry): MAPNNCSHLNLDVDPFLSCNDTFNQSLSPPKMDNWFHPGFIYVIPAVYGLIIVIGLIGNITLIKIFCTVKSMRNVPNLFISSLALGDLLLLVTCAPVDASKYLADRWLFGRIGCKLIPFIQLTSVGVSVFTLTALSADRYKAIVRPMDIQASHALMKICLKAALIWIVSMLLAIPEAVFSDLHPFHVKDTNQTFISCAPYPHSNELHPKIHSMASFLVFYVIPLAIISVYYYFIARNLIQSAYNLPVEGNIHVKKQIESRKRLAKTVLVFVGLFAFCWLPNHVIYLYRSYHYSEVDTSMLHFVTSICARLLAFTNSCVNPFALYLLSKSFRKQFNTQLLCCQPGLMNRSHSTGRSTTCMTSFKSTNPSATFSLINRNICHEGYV
Nature of the assay: Procedure A: Binding Inhibition Studies (competition with [3H-Phe15]GRP15-27). Set-up: species or system murine. The following applies: Swiss 3T3 cells; 3 nM [3H-Phe15]GRP15-27; 60 minutes at 15° C. How it is done: (§1) The activity of the peptide derivatives of the present invention as GRP antagonists was determined in competitive binding assays with a radio-active GRP derivative. Swiss 3T3 fibroblasts were used in these tests as the source of GRP receptor. Because these cells respond to GRP binding with a rapid increase in DNA synthesis, compounds that bind to the GRP receptor can also be tested for their ability to stimulate DNA synthesis. New DNA synthesis is one of the early steps in cell division and is widely accepted as a measure of mitogenicity or cell growth. […] Compounds which block DNA synthesis are mitogenic antagonists.
Swiss 3T3 cells, obtained from Dr. K. Brown (Institute of Animal Physiology, Cambridge, U.K.), were grown to confluency in Costar 12 -well plates containing DMEM (Gibco) supplemented with 10% fetal bovine serum, 2 mM glutamine and 1% penicillin-streptomycin. The cells were washed twice with binding buffer [1:1 DMEM:Waymouths MB752/1 medium, plus 1 mg/ml BSA (Fraction V, Calbiochem)]. The antagonist was dissolved in 10 mM HCl, and diluted to the appropriate concentration in binding buffer. The antagonist was then added to the cells, followed by [^3 H Phe^15 ]GRP15-27 at a final concentration of 3 nM. After 60 minutes incubation at 15° C., the supernatant liquid was removed and the cell monolayer rinsed four times with washing buffer (150 mM NaCl, 20 mM Na2 HPO4, 5mM KCl, 1.8 mM KH2 PO4, 1 mg/ml BSA) The cells were then lysed with 1 ml/well of lysis buffer (1% Triton X-100, 0.1% BSA), and the solution was aspirated into scintillation vials for counting. Each data point was collected in triplicate.
A word on the IC50: it is the concentration needed to halve the response being measured. As for `CCCCC[C@@H](CC(C)C)NC(=O)[C@H](Cc1c[nH]cn1)NC(=O)CNC(=O)[C@@H](NC(=O)[C@H](C)NC(=O)[C@H](Cc1c[nH]c2ccccc12)NC(=O)[C@H](Cc1c[nH]cn1)NC(C)=O)C(C)C` [1(S)] (Ac-HWAVGH-X1), the IC50 turned out to be 17 nM.

For the compound `CCCCC[C@H](CC(C)C)NC(=O)[C@H](Cc1c[nH]cn1)NC(=O)CNC(=O)[C@@H](NC(=O)[C@H](C)NC(=O)[C@H](Cc1c[nH]c2ccccc12)NC(=O)[C@H](Cc1c[nH]cn1)NC(C)=O)C(C)C` [1(R)] (Ac-HWAVGH-{NH(2-Me-nonan-4R-yl)}), the IC50 amounted to 2 nM. As to `CCCCC[C@H](CC(C)C)NC(=O)[C@H](Cc1c[nH]cn1)NC(=O)CNC(=O)[C@@H](NC(=O)[C@H](C)NC(=O)[C@H](Cc1c[nH]c2ccccc12)NC(=O)[C@H](Cc1c[nH]cn1)NC(=O)C(C)(C)C)C(C)C` [4(R)] (Piv-HWAVGH-{NH(2-Me-nonan-4R-yl)}), the IC50 was 3 nM. `CCCCC[C@H](CC(C)C)NC(=O)[C@H](Cc1c[nH]cn1)NC(=O)CNC(=O)[C@@H](NC(=O)[C@H](C)NC(=O)[C@H](Cc1c[nH]c2ccccc12)NC(=O)[C@H](Cc1c[nH]cn1)NS(C)(=O)=O)C(C)C` [3(R)] (Ms-HWAVGH-{NH(2-Me-nonan-4R-yl)}) yielded an IC50 of 15 nM. Still for that read-out and setting: for `CCCCC[C@H](CC(C)C)NC(=O)[C@H](Cc1c[nH]cn1)NC(=O)CNC(=O)[C@@H](NC(=O)[C@H](C)NC(=O)[C@H](Cc1c[nH]c2ccccc12)NC(=O)[C@H](Cc1c[nH]cn1)NC(=O)OC(C)(C)C)C(C)C` [5(R)] (Boc-HWAVGH-{NH(2-Me-nonan-4R-yl)}) the value was 2 nM; for `CC(=O)N[C@@H](Cc1c[nH]cn1)C(=O)N[C@@H](Cc1c[nH]c2ccccc12)C(=O)N[C@@H](C)C(=O)N[C@H](C(=O)NCC(=O)N[C@@H](Cc1c[nH]cn1)C(=O)NC(CC(C)C)CC(C)C)C(C)C` [Example 6] (Ac-HWAVGH-{NHCH(iBu)2}), 2 nM. As for `CCCC=C[C@H](CC(C)C)NC(=O)[C@H](Cc1c[nH]cn1)NC(=O)CNC(=O)[C@@H](NC(=O)[C@H](C)NC(=O)[C@H](Cc1c[nH]c2ccccc12)NC(=O)[C@H](Cc1c[nH]cn1)NC(C)=O)C(C)C` [2(S)] (Ac-HWAVGH-X2), the IC50 was found to be 11 nM.

The subject of another assay is Swiss 3T3 cells. Nature of the assay: Procedure C: Mitogenesis Inhibition (GRP-stimulated 3H-thymidine uptake). The format is cell-based, murine. The following applies: GRP plus antagonist, 48 hours. How it is done:
as §1, with “antagonists. […] Swiss 3T3 cells were grown in monolayer culture in 24 -well plates (Costar) in serum free DMEM for 48 hours, at which time the GRP or a GRP homologue. The antagonist and 23 nM ^3 H-thymidine were added. After an additional 48 hours, the cell monolayer was washed twice with PBS, and the cells were then removed with 1 ml 10x trypsin containing 5 mM EDTA. The cells were harvested with a Skatron filter apparatus, and the filters counted in a scintillation counter.” for “antagonists.”
Turning to `CCCCC[C@H](CC(C)C)NC(=O)[C@H](Cc1c[nH]cn1)NC(=O)CNC(=O)[C@@H](NC(=O)[C@H](C)NC(=O)[C@H](Cc1c[nH]c2ccccc12)NC(=O)[C@H](Cc1c[nH]cn1)NC(=O)C(C)(C)C)C(C)C` [4(R)] (Piv-HWAVGH-{NH(2-Me-nonan-4R-yl)}), the IC50 came out at 2 nM.
